Patent US8192951B2, “Glycolysis-inhibiting substances in cell culture” (Wyeth LLC, priority 2006, dated 2012)

Legend:
α-GDF-8 cells [1] = experiment: α-GDF-8 cells in 1 L Bioreactors in the presence of high glucose (Example 5); type: cell-based, Chinese Hamster; conditions: 0.5 g/L 2-deoxyglucose
Procedure: Materials and Methods: α-GDF-8 cells were grown in Medium 2 in 1 L Bioreactors and fed with Medium 3. The starting culture media were either supplemented or not with 0.5 g/L 2-deoxyglucose. The cells were fed on days 3, 5, 7, 10 and 12 to keep the glucose level at above approximately 8 g/L. The cultures lacking 2-deoxyglucose were shifted from 37° Celsius to 31° Celsius on day 4, while the cultures containing 2-deoxyglucose were shifted from 37° Celsius to 31° Celsius on day 5.

rats = conditions: fed to rats, without decreasing total food intake; cited from earlier work
α-GDF-8 cells [2] = experiment: α-GDF-8 cells in 1 L Bioreactors, shift on day 4 or day 6 (Example 3); type: cell-based, Chinese Hamster
Procedure: Materials and Methods: α-GDF-8 cells were grown in Medium 2 in 1 L Bioreactors and fed with Medium 3. Some of the cultures were supplemented with 0.5 g/L 2-deoxyglucose at the beginning of the culture. The cultures were shifted from 37° Celsius to 31° Celsius on either day 4 (“early shift”) or day 6 (“late shift”). [table]

α-GDF-8 cells [3] = experiment: Lactate, growth, viability and titer of α-GDF-8 cells in culture dishes, two passages (Example 2); type: cell-based, Chinese Hamster; design: key to Gluc: glucose in g/L; viab: unit not given here
Procedure: Materials and Methods: α-GDF-8 cells were grown in culture dishes in Medium 1 containing approximately 6 g/L glucose with varying concentrations of 2-deoxyglucose. Some α-GDF-8 cultures were optionally supplemented with glucose to a final initial concentration of 9 g/L. Cells were passaged twice and grown for three days after each passage. At the end of three days, each of the passaged cultures was measured for viability, cell density, glucose levels, lactate levels and α-GDF-8 titer. Specific titer production rate (“Qp”) and specific lactate uptake rate (“Qlact”) were calculated. Qlact was calculated as follows: ((final lactate level−initial lactate level)/(final cell density−initial cell density))×growth rate×24, where lactate levels are measured in g/L, cell densities are measured in 10^6 cells/ml, growth rate is measured as l/h, and the final Qlact is calculated as mg/e6/day. Qp was calculated as follows: ((final titer−initial titer)/(final cell density−initial cell density))×growth rate×24, where titer is measured in mg/L, cell density is measured in 10^6 cells/ml, growth rate is measured as 1/h, and Qp is calculated as μg/e6/day.

[4] = system: α-GDF-8 cells (CHO cells engineered to express a monoclonal antibody against GDF-8); experiment: Cell growth of α-GDF-8 cells in culture dishes with varying 2-deoxyglucose (Example 1); type: cell-based, Chinese Hamster
Procedure: Materials and Methods: Chinese Hamster Ovary (“CHO”) cells engineered to express a monoclonal antibody against growth and differentiation factor 8 (“α-GDF-8 cells”) (see […] et al., Neutralizing Antibodies Against GDF-8 and Uses Therefor, US20040142382 A1) were grown in culture dishes in Medium 1 supplemented with glucose to a final initial concentration of 9 g/L with varying concentrations of 2-deoxyglucose.

α-GDF-8 cells [5] = experiment: α-GDF-8 cells in 1 L Bioreactors, shift on day 5 or day 6 (Example 4); type: cell-based, Chinese Hamster
Procedure: Materials and Methods: α-GDF-8 cells were grown in Medium 2 in 1 L Bioreactors and fed with Medium 3. Some of the cultures were supplemented with 0.5 g/L 2-deoxyglucose at the beginning of the culture. The cells were fed with either 3 g/L glucose or 0.3 g/L 2-deoxyglucose on day 4 and with either 10% feed medium (by volume) or 10% feed medium (by volume) supplemented with 0.2 g/L 2-deoxyglucose on day 5. The cultures were shifted from 37° Celsius to 31° Celsius on either day 5 (“early shift”) or day 6 (“late shift”). Additional feeds were provided on days 7 and 10. [table]

[6] = 0.5 g/L 2-deoxyglucose, early shift (day 4)
[7] = 0.5 g/L 2-deoxyglucose, late shift (day 6)
[8] = first passage, 0.25 g/L deoxyglucose, 9 g/L glucose
[9] = first passage, 0.5 g/L deoxyglucose, 6 g/L glucose
[10] = first passage, 0.5 g/L deoxyglucose, 9 g/L glucose
[11] = first passage, 1 g/L deoxyglucose, 9 g/L glucose
[12] = second passage, 0.25 g/L deoxyglucose, 9 g/L glucose
[13] = second passage, 0.5 g/L deoxyglucose, 6 g/L glucose
[14] = second passage, 0.5 g/L deoxyglucose, 9 g/L glucose
[15] = second passage, 1 g/L deoxyglucose, 6 g/L glucose
[16] = second passage, 1 g/L deoxyglucose, 9 g/L glucose

Structure (SMILES): O=CC[C@@H](O)[C@H](O)[C@H](O)CO [2-deoxyglucose]
- lactate accumulation vs cultures lacking 2-deoxyglucose (α-GDF-8 cells [1]; glucose above approximately 8 g/L, shift day 5): significantly lower
- α-GDF-8 titer vs culture lacking 2-deoxyglucose (α-GDF-8 cells [1]; high glucose, by day 14): slightly higher
- cell density vs culture lacking 2-deoxyglucose (α-GDF-8 cells [1]; high glucose, middle stage of the culture): slightly higher
- overall integrated viable cell density vs cells without 2-deoxyglucose (α-GDF-8 cells [1]; high glucose, shifted one day later): higher
- glucose/energy flux (rats): reduces glucose/energy flux
- final titer vs culture lacking 2-deoxyglucose (α-GDF-8 cells [2]; [6]): slightly higher
- lactate levels vs culture lacking 2-deoxyglucose (α-GDF-8 cells [2]; [6]): slightly lower
- cell density at the time of the shift (α-GDF-8 cells [2]; [7]): approximately 18 ×e^6/mL
- final titer vs culture lacking 2-deoxyglucose (α-GDF-8 cells [2]; [7]): slightly higher
- lactate level at the time of the shift (α-GDF-8 cells [2]; [7]): approximately 6 g/L
- lactate levels vs culture lacking 2-deoxyglucose (α-GDF-8 cells [2]; [7]): slightly lower
- viability vs late shifted cells without 2-deoxyglucose (α-GDF-8 cells [2]; [7]): significantly higher
- cell density vs the other three conditions (α-GDF-8 cells [2]; 0.5 g/L 2-deoxyglucose, late shift (day 6), from approximately day 4): significantly higher
- lactate level at the time of the shift (α-GDF-8 cells [2]; early shift (day 4), stated for the two early shifted cultures, with and without 2-deoxyglucose): 4 to 5 g/L
- effect on accumulation of lactate (α-GDF-8 cells [3]; culture dishes, dose-dependent): reduced the accumulation of lactate in the culture in a dose-dependent manner
- effect on specific growth rate (α-GDF-8 cells [3]; culture dishes, dose-dependent): negatively affected
- effect on α-GDF-8 titer (α-GDF-8 cells [3]; culture dishes, dose-dependent): reduced the α-GDF-8 titer in a dose-dependent manner
- Gluc (α-GDF-8 cells [3]; [8]): 7.55
- Qlact (α-GDF-8 cells [3]; [8]): 0.899 mg/e6/day
- c.d (end) (α-GDF-8 cells [3]; [8]): 1.3 10^6 cells/ml
- lact (α-GDF-8 cells [3]; [8]): 1.53 g/L
- viab (α-GDF-8 cells [3]; [8]): 99.7
- μ (specific growth rate) (α-GDF-8 cells [3]; [8]): 0.032 h⁻¹
- Gluc (α-GDF-8 cells [3]; [9]): 5.21
- Qlact (α-GDF-8 cells [3]; [9]): 0.701 mg/e6/day
- c.d (end) (α-GDF-8 cells [3]; [9]): 1.24 10^6 cells/ml
- lact (α-GDF-8 cells [3]; [9]): 1.2 g/L
- viab (α-GDF-8 cells [3]; [9]): 99.1
- μ (specific growth rate) (α-GDF-8 cells [3]; [9]): 0.03 h⁻¹
- Gluc (α-GDF-8 cells [3]; [10]): 7.88
- Qlact (α-GDF-8 cells [3]; [10]): 0.727 mg/e6/day
- c.d (end) (α-GDF-8 cells [3]; [10]): 1.12 10^6 cells/ml
- lact (α-GDF-8 cells [3]; [10]): 1.22 g/L
- viab (α-GDF-8 cells [3]; [10]): 99.3
- μ (specific growth rate) (α-GDF-8 cells [3]; [10]): 0.028 h⁻¹
- Gluc (α-GDF-8 cells [3]; [11]): 8.13
- Qlact (α-GDF-8 cells [3]; [11]): 0.553 mg/e6/day
- c.d (end) (α-GDF-8 cells [3]; [11]): 1.05 10^6 cells/ml
- lact (α-GDF-8 cells [3]; [11]): 0.9 g/L
- viab (α-GDF-8 cells [3]; [11]): 99.7
- μ (specific growth rate) (α-GDF-8 cells [3]; [11]): 0.027 h⁻¹
- Gluc (α-GDF-8 cells [3]; [12]): 7.25
- Qlact (α-GDF-8 cells [3]; [12]): 0.576 mg/e6/day
- Qp (α-GDF-8 cells [3]; [12]): 15.477 μg/e6/day
- c.d (end) (α-GDF-8 cells [3]; [12]): 3.2 10^6 cells/ml
- lact (α-GDF-8 cells [3]; [12]): 2.17 g/L
- titer (α-GDF-8) (α-GDF-8 cells [3]; [12]): 58.28 mg/L
- viab (α-GDF-8 cells [3]; [12]): 99.5
- μ (specific growth rate) (α-GDF-8 cells [3]; [12]): 0.035 h⁻¹
- Gluc (α-GDF-8 cells [3]; [13]): 5.04
- Qlact (α-GDF-8 cells [3]; [13]): 0.415 mg/e6/day
- Qp (α-GDF-8 cells [3]; [13]): 13.135 μg/e6/day
- c.d (end) (α-GDF-8 cells [3]; [13]): 2.6 10^6 cells/ml
- lact (α-GDF-8 cells [3]; [13]): 1.36 g/L
- titer (α-GDF-8) (α-GDF-8 cells [3]; [13]): 43 mg/L
- viab (α-GDF-8 cells [3]; [13]): 99
- μ (specific growth rate) (α-GDF-8 cells [3]; [13]): 0.033 h⁻¹
- Gluc (α-GDF-8 cells [3]; [14]): 7.65
- Qlact (α-GDF-8 cells [3]; [14]): 0.506 mg/e6/day
- Qp (α-GDF-8 cells [3]; [14]): 14.252 μg/e6/day
- c.d (end) (α-GDF-8 cells [3]; [14]): 2.8 10^6 cells/ml
- lact (α-GDF-8 cells [3]; [14]): 1.79 g/L
- titer (α-GDF-8) (α-GDF-8 cells [3]; [14]): 50.37 mg/L
- viab (α-GDF-8 cells [3]; [14]): 99.6
- μ (specific growth rate) (α-GDF-8 cells [3]; [14]): 0.033 h⁻¹
- Gluc (α-GDF-8 cells [3]; [15]): 6.51
- Qlact (α-GDF-8 cells [3]; [15]): 0.290 mg/e6/day
- Qp (α-GDF-8 cells [3]; [15]): 12.038 μg/e6/day
- c.d (end) (α-GDF-8 cells [3]; [15]): 1.5 10^6 cells/ml
- lact (α-GDF-8 cells [3]; [15]): 0.68 g/L
- titer (α-GDF-8) (α-GDF-8 cells [3]; [15]): 28.22 mg/L
- viab (α-GDF-8 cells [3]; [15]): 98.6
- μ (specific growth rate) (α-GDF-8 cells [3]; [15]): 0.027 h⁻¹
- Gluc (α-GDF-8 cells [3]; [16]): 9
- Qlact (α-GDF-8 cells [3]; [16]): 0.290 mg/e6/day
- Qp (α-GDF-8 cells [3]; [16]): 12.400 μg/e6/day
- c.d (end) (α-GDF-8 cells [3]; [16]): 1.9 10^6 cells/ml
- lact (α-GDF-8 cells [3]; [16]): 0.98 g/L
- titer (α-GDF-8) (α-GDF-8 cells [3]; [16]): 34.85 mg/L
- viab (α-GDF-8 cells [3]; [16]): 99
- μ (specific growth rate) (α-GDF-8 cells [3]; [16]): 0.028 h⁻¹
- Qlact (α-GDF-8 cells [3]; second passage, 1 g/L deoxyglucose, 9 g/L glucose, listed as 2-Deoxyglucose): 0.349 mg/e6/day
- effect on viability of the cells (α-GDF-8 cells [3]; up to a ratio of 2-deoxyglucose to glucose of 1 to 6): largely unaffected
- specific growth rate (μ) ([4]; 1 g/L 2-deoxyglucose, 9 g/L glucose (ratio 1:9)): over 0.02 l/h
- specific growth rate (μ) ([4]; 2.5 g/L 2-deoxyglucose, 9 g/L glucose): approximately 0.015 l/h
- effect of increasing amounts on specific growth rate ([4]; 9 g/L glucose): reduced the specific growth rate in a dose-dependent manner
- final lactate concentration vs early shifted cultures (α-GDF-8 cells [5]; [7]): lower
- α-GDF-8 produced per cell vs other three conditions (α-GDF-8 cells [5]; [7]): less α-GDF-8 per cell
- cell density vs the other three conditions (α-GDF-8 cells [5]; 0.5 g/L 2-deoxyglucose, late shift (day 6), from approximately day 5): significantly higher
- glucose uptake (α-GDF-8 cells [5]; 2-deoxyglucose in the culture medium, early and late shift): decrease
- overall titer of α-GDF-8 vs other culture conditions (α-GDF-8 cells [5]; all four culture conditions): similar
